Assay results taken from US20210161894A1, “Compositions and Methods for Modulating Liver Endothelial Cell Fenestrations” (priority 2017, published 2021).
“Also recorded” adds a separate entry of the source.

Experiments:
[1] = test system: fenestrations; conditions: young mice; cited from earlier work
[2] = test system: LSEC fenestrations; assay: SEM of LSEC fenestrations after drug treatments (Example 2, FIGS. 1-6); format: cell-based, mice; conditions: for change in fenestration diameter: TRAIL 1 μg/ml; for sieve plates and fenestration density on SEM images: young and old mice; for fenestration porosity: 300 ng/ml
Text: Young and old C57B16 mice (n=3 young mice, age 3-4 and n=3 old mice, 20-24 months) were maintained under full SPF conditions and with ad libitum feeding. The study had the approval of the Sydney South West Area Health Service Animal Welfare Committee. Mice at 20-24 months are senescent. Animals were sacrificed withCO2 and livers immediately perfusion-fixed via a 23G needle inserted into the portal vein. Liver tissue was fixed with1% glutaraldehyde/4% para-formaldehyde in PBS (0.1M sucrose).
Drug treatments and dosages (shown superimposed on their corresponding image in FIGS. 1, and 2) were performed by incubating liver cells at 37° C., 5% CO2 for 30 mins using RPMI with or without dissolved drug. All images were taken by two blinded researchers using a SEM at 10,000×, scale bars of 1 μm are shown.
Each data point represents the average±SD of 8 images (as shown in FIGS. 1 and 2), 616-3312 fenestration raw data points were collected per treatment.

[3] = test system: isolated LSECs (liver sinusoidal endothelial cells); assay: SEM of fenestrations in isolated LSECs from young and old mice after 30 min drug treatment (second Example 7); format: cell-based; conditions: for Diameter / Frequency / Porosity: 30 min; for effect on porosity and fenestration frequency (summary in words): young and old LSECs
Method: 3-4 and 18-24 month old male C57/B16 mice were obtained from the Animal Resource Centre in Perth, Western Australia. Animals were housed at the ANZAC Research Institute animal house on a 12 hour light/dark cycle and provided with ad libitum access to food and water. Mice were not fasted prior to euthanasia by a single intraperitoneal injection with 100 mg/kg ketamine and 10 mg/kg xylazine in saline. The study was approved by the Animal Welfare Committee of the Sydney Local Health District and was performed in accordance with the Australian Code of Practice for the care and use of animals for scientific research (AWC 2016/009). All information provided accords with the ARRIVE guidelines.
As described previously (Cogger et al. J e52698, 2015 https://dx.doi.org/10.3791/52698), mouse LSEC isolation was performed by perfusion of the liver with collagenase. Non-parenchymal cells were removed by a two-step Percoll gradient and Kupffer cells were removed by selective adherence to plastic. LSECs (seeded at 0.5×10^6 cells/cm2) were cultured (37° C., 5% CO2) in serum free RPMI-1640 for 3.5 hours before use.
Cells were treated with various agents for 30 minutes to determine effects on fenestrations. All agents were dissolved in serum-free RPMI media. All experiments were performed in triplicate for both young and old mice. Actin was disrupted with 0.5 μg/ml cytochalasin D and lipid rafts were disrupted with 3.6 and 1.8 μg/ml 7-keocholesterol; dosages were selected. […] The serotonergic/phospholipase C pathway was promoted with DOI (0.1 μg/ml) and endothelin receptors were inhibited by bosentan (550, 55 and 5.5 ng/ml) Death receptor 4 was promoted with TRAIL (100, 10. 1, 0.1 and 0.01 ng/ml) and NAD+ was promoted with NMN (5000, 50, 10, 1 and 0.1 μg/ml).
SEM was performed as previous described (Corbin et al J Biol Chem 274: 13729-13732, 1999.). LSECs were fixed in 2.5% glutaraldehyde in 0.1M sodium cacodylate buffer, osmicated, dehydrated in graded ethanol and hexamethyl disilazane, mounted on stubs, sputter coated with platinum and examined using a JEOL 6380 Scanning Electron Microscope (JEOL Ltd, Japan). Images at 10,000× magnification were collected by a blinded observer and used to measure fenestration diameter and LSEC porosity using Image J (NIH, MD, USA). […] Fenestrations less than 30 nm and gaps more than 300 nm were excluded from analysis. Porosity was defined as the percentage of the cell membrane covered with fenestrations. Frequency was defined at the number of fenestrations per […].
Individual specifications of analyses are described in figures legends. All data are presented as mean±SD. Experimental design and analysis were performed in accordance with the APS guidelines described in Curran-Everett and Benos DJ. Adv Physiol Educ 31: 295-298, 2007.

[4] = test system: lipid rafts and fenestrations of LSECs; assay: 3D-SIM study of lipid rafts and fenestrations; format: cell-based
Text: Sieve plates containing fenestrations are intercalated between thickened areas of membrane (lipid rafts).

[5] = test system: actin cytoskeleton of LSECs; assay: dSTORM imaging of the actin cytoskeleton; format: cell-based; conditions: young mice
Method: dSTORM imaging was performed using an in-house microscope. LSECs were prepared for dSTORM by washing twice with PBS and fixation with 4% paraformaldehyde for 30 mins. Then LSECs were washed twice with PBS, permeabilised with Triton-X for 90 secs, blocked with 5% bovine serum albumin for 1 hour, and stained with Alexa Flour phalloidin 488 (1:40) for 20 min prior to imaging. Cells were washed using PBS with 0.1% Tween and placed in OxEA buffer (30) for dSTORM visualisation and image capture. The dSTORM used 488 and 647 nm excitation from diode-pumped lasers (Coherent Inc, CA, USA). Excitation was delivered via a 1.49NA 60× oil-immersion TIRF objective (Olympus Australia, AUS). Fluorescence was captured on two separate sCMOS cameras (Imaging Development Systems GmbH, Germany). Data was collected for up to 40,000 images at around 75 fps. 5-8 whole cell images were collected by a blinded observer for each treatment dosage and processed using rapidSTORM open source software (Wolter et al. Nat Methods 9: 1040, 2012.). Each image was examined for all sieve plates and actin structures. Densitometry measurements were performed using 5-8 dSTORM images with data analysis performed using Image J software (NIH, MD, USA).

[6] = test system: Intracellular cGMP; assay: Cyclic GMP ELISA; format: cell-based, mice; conditions: p=0.001
Method: Assays for MTT and cGMP were performed as instructed by the kit. Briefly, MTT assays were performed following drug treatments. Cells were washed with PBS and incubated with RPMI media containing […] MTT solution. Cells were incubated at 37° C. for 4 hrs and lysed with […] solubilisation solution, 30 mins colour development followed and measured at 570 nm using a spectrophotometer. cGMP assays were also performed after drug treatments. Cells were washed with PBS and lysed with 0.1M HCl. Following sample collection the sample was acetylated and prepared with kit reagents. Samples were incubated for 18 hrs at 4° C. before examination at 410 nm with a spectrophotometer.

[7] = old mice, 7KC 4.5 μM, Bosentan 0.1 μM, Sildenafil 300 ng/ml

CC(C)CCC[C@@H](C)[C@H]1CC[C@H]2[C@@H]3C(=O)C=C4C[C@@H](O)CC[C@]4(C)[C@H]3CC[C@]12C [7-ketocholesterol]
fenestration porosity and diameter (previously reported) [1]: increase fenestration porosity in young mice without any significant effects on fenestration diameter | diameter of fenestrations observed on SEM images [2]: Increased diameter of fenestrations | change in fenestration diameter [2, 7]: Increased fenestration diameter | change in fenestration porosity ([2]; old mice, Cytochalasin D 0.5 μg/ml, DOI 0.1 μg/ml, 7KC 9 μM, Amlodipine 20 ng/ml): increased porosity | change in fenestration frequency ([2]; old mice, Cytochalasin D 0.5 μg/ml, DOI 0.1 μg/ml, 7KC 9 μM, Bosentan 0.1 μM, Sildenafil 300 ng/ml, Amlodipine 20 ng/ml): increased | sieve plates and fenestration density on SEM images [2]: promoted increased fenestrations but limited clearly definable sieve plates | change in fenestration porosity ([2]; young mice, Cytochalasin D 0.5 μg/ml, DOI 0.1 μg/ml, 7KC 9 μM, Amlodipine 20 ng/ml): increased porosity | gap formation [3]: Gap formation was apparent | increase in fenestration diameter [3]: 15 nm | fenestrations in LSECs from old mice ([3]; old mice): increased fenestrations | Diameter ([3]; old mice, 1.8 μg/ml): 154.41 ± 13.07 nm | Frequency ([3]; old mice, 1.8 μg/ml): 2.65 ± 0.94 no/area | Porosity ([3]; old mice, 1.8 μg/ml): 5.19 ± 0.95 % | Diameter ([3]; old mice, 3.6 μg/ml): 139.46 ± 17.45 nm | Frequency ([3]; old mice, 3.6 μg/ml): 3.15 ± 0.08 no/area | Porosity ([3]; old mice, 3.6 μg/ml): 5.34 ± 1.17 % | effect on porosity and fenestration frequency (summary in words) [3]: significant increases in porosity and fenestration frequency in both young and old LSECs | fenestration diameter ([3]; young and old mice, P<0.05): increased fenestration diameter in both young and old mice | Diameter ([3]; young mice, 1.8 μg/ml): 142.35 ± 8.02 nm | Frequency ([3]; young mice, 1.8 μg/ml): 3.59 ± 0.78 no/area | Porosity ([3]; young mice, 1.8 μg/ml): 6.10 ± 1.82% | Diameter ([3]; young mice, 3.6 μg/ml): 148.59 ± 7.70 nm | Frequency ([3]; young mice, 3.6 μg/ml): 4.36 ± 0.93 no/area | Porosity ([3]; young mice, 3.6 μg/ml): 8.03 ± 1.37 % | shift in frequency distribution of fenestration diameter ([3]; young mice, NMN 5000 μg/ml, 7-ketocholesterol 3.6 μg/ml): decreased 30-125 nm diameter fenestrations and an increase in 150-3000 sized fenestrations | effect on fenestrations and lipid rafts [4]: increased fenestrations and decreased rafts

CCCc1nn(C)c2c(=O)[nH]c(-c3cc(S(=O)(=O)N4CCN(C)CC4)ccc3OCC)nc12 [Sildenafil, sildenafil]
actin changes with drug treatments (dSTORM) [5]: disordered, dense actin staining in the plasma membrane and clustering of actin within the cytoplasm; also recorded: Disordered actin structure; also recorded: Gap formations; also recorded: Individual fenestrations | actin changes with drug treatments (dSTORM) ([5]; listed as sildenafil): loss of smooth fibres encircling the cytoplasm | fenestration porosity ([2]; old mice): 5.4±1.9% | change in fenestration diameter [2, 7]: No changes | sieve plates and fenestration density on SEM images [2]: maintained sieve plates and increased fenestration density | fenestration porosity ([2]; young mice): 7.1±2.2% | change in fenestration diameter ([2]; young mice, Bosentan 0.1 μM, Sildenafil 300 ng/ml): No changes | Diameter ([3]; old mice, 0.3 μg/ml): 138.91 ± 13.05 nm | Frequency ([3]; old mice, 0.3 μg/ml): 3.41 ± 0.68 no/area | Porosity ([3]; old mice, 0.3 μg/ml): 5.49 ± 1.33 % | Diameter ([3]; old mice, 0.6 μg/ml): 143.69 ± 10.80 nm | Frequency ([3]; old mice, 0.6 μg/ml): 2.88 ± 01.16 no/area | Porosity ([3]; old mice, 0.6 μg/ml): 4.97 ± 1.34 % | effect on porosity and fenestration frequency (summary in words) [3]: significant increases in porosity and fenestration frequency in both young and old LSECs | dose response on fenestration porosity (words) ([3]; young mice): limited dosage range for positive effects on fenestration porosity | Diameter ([3]; young mice, 0.3 μg/ml): 126.34 ± 16.36 nm | Frequency ([3]; young mice, 0.3 μg/ml): 4.54 ± 0.34 no/area | Porosity ([3]; young mice, 0.3 μg/ml): 6.34 ± 2.09 % | Diameter ([3]; young mice, 0.6 μg/ml): 130.33 ± 16.02 nm | Frequency ([3]; young mice, 0.6 μg/ml): 3.56 ± 0.61 no/area | Porosity ([3]; young mice, 0.6 μg/ml): 4.92 ± 0.35% | dose response on fenestration porosity (words) ([3]; young mice, listed as sildenafil): did not promote greater changes in fenestration porosity or frequency | fenestration numbers, fenestrated cell area and sieve plate formation ([3]; young mice, sildenafil 0.3 μg/ml, amlodipine 20 ng/ml, TRAIL 1 ng/ml): increased fenestration numbers and overall fenestrated cell area with some disruption to sieve plate formation | increase of intracellular cGMP [6]: 3 fold
